# Test results published in a melting point compilation (Tetko et al.; mined from patent text by program, amines drawn as free bases though some values may be those of a salt).
row,SMILES,melting point
1,"COc1ccc2c(C(C)C(=O)OCCNC(=O)c3cccnc3)cccc2c1 (single isomer, unassigned; (+))",79 to 82 °C
2,CCOC(=O)c1cn2c3c(cc(C)cc3c1=O)OCC2C (configuration not stated),195 to 197 °C
3,CC(=O)c1ccc(O)c(CCCc2ccccc2)c1O,120 to 122 °C
4,COc1cc2ncnc(N3CCc4ccc(Cl)cc43)c2cc1Cl,226 °C
5,Fc1ccc(Cn2c(NC3CCN(CCc4ccccn4)CC3)nc3ccccc32)cc1,133 °C
6,CC(C)CC(SC1CCCCC1)c1c(O)cc(-c2ccccc2)oc1=O (configuration not stated),210 to 212 °C
7,CC(C)(C)OC(=O)CCC(N)(CCC(=O)OC(C)(C)C)CCC(=O)OC(C)(C)C,84 to 86 °C
8,O=S(=O)(Nc1cc(I)c(O)c2ccccc12)c1cccs1,134 to 136 °C
9,COc1cc(NC(=O)c2ccco2)ccc1S(=O)(=O)N1C(=O)C(c2ccccc2Cl)(N(C)C)c2cc(Cl)ccc21 (configuration not stated),255 °C
10,CC(C)=CCNc1ncnc2nc(N(C)C)[nH]c12,246 to 249 °C
11,CC(=O)C1CCC2C3CCC4CC(O)C(N5CCOC(C)(C)C5)CC4(C)C3C(=O)CC12C (configuration not stated),163 °C
12,Cc1c(-c2ccccc2)oc2c(OCCCl)cccc2c1=O,141 to 142 °C
13,CCC1(CCCCN2CCN(c3cccc4c3OCCO4)CC2)C(=O)Nc2cc(F)ccc21 (configuration not stated),146 to 147 °C
14,Cc1nnc(-c2ccc3occ(-c4cnn(Cc5ccccc5C#N)c4)c3c2)o1,192 to 193 °C
15,CN1CC(C(=O)c2cccn2Cc2ccc(F)cc2)=C(O)C1=O,150 to 151 °C
16,CCCc1[nH]c2ccc(OC)cc2c1/C=C/C(=O)c1ccncc1,221 to 224 °C
17,COc1cc(OC)c(-c2cc3ccccc3n2C(=O)OC(C)(C)C)cc1/C=C/C(=O)c1ccc(S(N)(=O)=O)cc1,120 to 122 °C
18,Nc1nc(Cl)nc2ccccc12,232 °C
19,CC(Cl)(Cl)C(NC(=O)c1cc(F)cc(F)c1)NC(=NC#N)Nc1ccc(Cl)nc1 (configuration not stated),195 to 196 °C
20,CN1CC(=O)N2[C@H](c3ccc4c(c3)CCN4)c3[nH]c4ccccc4c3C[C@@H]2C1=O,240 °C
21,CCCCCCCCNC(=O)NCCCCC,65 to 65.5 °C
22,C[Si](C)(C)C#Cc1ccc2c(c1)C(c1ccccc1)=NCc1c(C(=O)OCC(F)(F)F)ncn1-2,107 to 110 °C
23,CCc1ccc(CSc2nc(C)cc(=O)[nH]2)nc1,127 to 128 °C
24,Cc1ccc(CC2CCCN(c3nc(C)c(C(=O)NCc4ccccc4)s3)C2=O)cc1 (configuration not stated),110 to 113 °C

row,SMILES,melting point
1,O=C(O)c1c(-c2ccccc2)c2cc(Cl)c(Cl)cc2oc1=O,233 to 234 °C
2,ClCc1cn(C(c2ccccc2)(c2ccccc2)c2ccccc2)cn1,88 to 91 °C
3,O=C(O)c1cc(C(=O)O)c2c(Cl)cc(Cl)cc2n1,246 °C
4,O=C1CCN(C2c3ccccc3-c3ccccc32)CC1,135 °C
5,N#Cc1cc(S(=O)(=O)C(F)(F)F)[nH]c1-c1ccc(Cl)cc1,228 to 230 °C
6,OC1(CCc2ccc3[nH]cc(C4CCNCC4)c3c2)CCCC1,190 to 191 °C
7,COC(=O)c1c(Sc2ccc(OC)cc2)nc(C)n1Cc1cc2c(cc1Cl)OCO2,152 °C
8,C=CCn1cc(F)cnc1=O,88 to 90 °C
9,Cc1nc(C(C)(O)c2cccs2)sc1C (configuration not stated),129 to 130 °C
10,COc1ccc(CCNC(=O)[C@@H](O)CO)cc1OC1CCCC1,54 to 55 °C
11,CC(C(=O)c1ccccn1)c1ccc(C2CCCCC2)cc1 (configuration not stated),80 to 81 °C
12,O=C=Nc1ccc(Cl)cc1[N+](=O)[O-],54 to 56 °C
13,O=C(NCc1ccccn1)Nc1cc(N2C(=O)C3(CCCC3)c3ccccc32)ccn1,135 °C
14,Cc1nccn1-c1ccc([N+](=O)[O-])cc1,135 to 137 °C
15,N=C(N)NCCCC(NC(=O)CCS)C(=O)O (configuration not stated),230 °C
16,Cc1ccccc1C(=O)Nc1ccc(C(=O)Cl)cc1,135 to 141 °C
17,CCOC(=O)c1cnc2n(c1=O)-c1ccccc1N(C=O)C2,172 to 174 °C
18,Cc1cc(C)c2c(c1)OCC2c1ccc(C(C)C)cc1 (configuration not stated),46 to 47 °C
19,Cn1c(C(F)(F)F)cc(=O)n(-c2cc(OC(=O)OCC(Cl)(Cl)Cl)c(Cl)cc2F)c1=O,140 to 142 °C
20,CNS(=O)(=O)c1cc2c(c(C(=O)NC3CCN(Cc4ccccc4)CC3)c1)OCCO2,228 °C
21,Cn1cc2c3c(c(F)cc2n1)CCC3=CC#N,249 to 252 °C
22,COC(=O)[C@@H]1CN(C#N)C[C@H]1c1ccc(OC)c(OC2CCCC2)c1 (relative stereo),78 to 80 °C
23,CC(C)C[C@H](NC(=O)[C@H](Cc1ccccc1)NP(=O)(OCc1ccccc1)OCc1ccccc1)C(=O)O,90 to 92 °C
24,CCn1cc(C(=O)NCc2ccc(Cl)cc2)c(=O)c2cc(Br)sc21,196 to 197 °C

row,SMILES,melting point
1,CC(C)Oc1ccc(-c2nn([C@@H](C)c3oc4ccc(F)cc4c(=O)c3-c3cccc(F)c3)c3ncnc(N)c23)cc1F,139 to 142 °C
2,Cc1nc(N2CCCC(=Cc3cccnc3)C2=O)sc1C(=O)NCc1ccccc1,206 to 208 °C
3,OCc1cccc2cc3ccccc3cc12,124 to 125 °C
4,CCCCCC(=O)n1nc(-c2cc(C(C)(C)C)c(O)c(C(C)(C)C)c2)c2cccnc21,112 to 114 °C
5,CCOC(=O)c1cn(NCC=O)c2nc(C)ccc2c1=O,210 to 212 °C
6,O=C(NC1(C2CC2)CC1)c1c(NC(=O)c2cc(Cl)nn2-c2ncccc2Cl)c(Cl)cc2cn[nH]c12,173 to 175 °C
7,CC(=O)C1CCC2C3CCC4CC(C)(O)CCC4(C)C3C(=O)CC12C (configuration not stated),175 °C
8,CC(=O)OCCCc1c2ccccc2cc2ccccc12,107 to 109 °C
9,O=C(NC(=O)C(F)(F)F)c1ccccc1-c1noc(-c2ccccc2F)n1,119 to 120 °C
10,CCc1c(-c2ccccc2)ncc2c(N3CCCCC3)nnc(N3CCCCC3)c12,64 to 65 °C
11,NC(=O)c1ccc2c(c1)C(=O)c1cc(F)ccc1C2=O,322 to 323 °C
12,N#Cc1c(N2CCN(C(=O)c3cccs3)CC2)c2cc(Cl)ccc2n(Cc2ccccc2)c1=O,266 °C
13,O=C1NC(=O)C2(C=Cc3c(Cl)sc(Cl)c32)N1 (configuration not stated),239 to 241 °C
14,COc1cc2nc(N3CCc4c(CN5CCOCC5)cccc4C3)[nH]c(=O)c2cc1OC,228 to 230 °C
15,CCCCn1ccc(-c2ccc(Oc3ccnc(C)c3)cc2F)c(C#N)c1=O,127 °C
16,O=C(N1Cc2cncnc2-c2ccc(Cl)cc2C1c1ccccc1Cl)C(F)(F)F (configuration not stated),178 to 179 °C
17,C=CCn1cnc2c1c(=O)n(CCCCC(C)O)c(=O)n2C (configuration not stated),71 °C
18,COc1ccc2c(c1)c(CC(=O)OCC(=O)O)c(C)n2C(=O)c1ccccc1F,172 to 173 °C
19,CN(CCCCCC(=O)NO)C(=O)/C=C/C=C/c1ccccc1,145 to 147 °C
20,O=C1c2ccccc2C(=O)N1CCCCCCN1CCC(C2(c3ccc(F)cc3)OCCO2)CC1,72 to 76 °C
21,CC(C(N)=O)c1ccc(C(=O)c2cccs2)cc1 (configuration not stated),108 to 124 °C
22,CC(C)(C)C1=NCC(O)CN1 (configuration not stated),210 °C
23,O=c1oc(-c2ccccc2)cc(O)c1N(Cc1ccccc1)Cc1ccccc1,130 to 135 °C
24,C=CC1OC(=O)N2c3ccc(O)cc3CCC12 (configuration not stated),250 °C
